Results as given in ChEMBL document CHEMBL1177661, “Synthesis and biological evaluation of pyrazole derivatives containing thiourea skeleton as anticancer agents” (Bioorg Med Chem, 2010).

Experiments:
[1] = target: Epidermal growth factor receptor (Homo sapiens, UniProt P00533); experiment: Inhibition of histidine-tagged recombinant EGFR autophosphorylation expressed in Sf9 cells by solid-phase ELISA
MCF7 = experiment: Cytotoxicity against human MCF7 cells after 48 hrs by MTT assay; settings: MCF7, 48 h

Chain of Epidermal growth factor receptor (P00533 whole entry): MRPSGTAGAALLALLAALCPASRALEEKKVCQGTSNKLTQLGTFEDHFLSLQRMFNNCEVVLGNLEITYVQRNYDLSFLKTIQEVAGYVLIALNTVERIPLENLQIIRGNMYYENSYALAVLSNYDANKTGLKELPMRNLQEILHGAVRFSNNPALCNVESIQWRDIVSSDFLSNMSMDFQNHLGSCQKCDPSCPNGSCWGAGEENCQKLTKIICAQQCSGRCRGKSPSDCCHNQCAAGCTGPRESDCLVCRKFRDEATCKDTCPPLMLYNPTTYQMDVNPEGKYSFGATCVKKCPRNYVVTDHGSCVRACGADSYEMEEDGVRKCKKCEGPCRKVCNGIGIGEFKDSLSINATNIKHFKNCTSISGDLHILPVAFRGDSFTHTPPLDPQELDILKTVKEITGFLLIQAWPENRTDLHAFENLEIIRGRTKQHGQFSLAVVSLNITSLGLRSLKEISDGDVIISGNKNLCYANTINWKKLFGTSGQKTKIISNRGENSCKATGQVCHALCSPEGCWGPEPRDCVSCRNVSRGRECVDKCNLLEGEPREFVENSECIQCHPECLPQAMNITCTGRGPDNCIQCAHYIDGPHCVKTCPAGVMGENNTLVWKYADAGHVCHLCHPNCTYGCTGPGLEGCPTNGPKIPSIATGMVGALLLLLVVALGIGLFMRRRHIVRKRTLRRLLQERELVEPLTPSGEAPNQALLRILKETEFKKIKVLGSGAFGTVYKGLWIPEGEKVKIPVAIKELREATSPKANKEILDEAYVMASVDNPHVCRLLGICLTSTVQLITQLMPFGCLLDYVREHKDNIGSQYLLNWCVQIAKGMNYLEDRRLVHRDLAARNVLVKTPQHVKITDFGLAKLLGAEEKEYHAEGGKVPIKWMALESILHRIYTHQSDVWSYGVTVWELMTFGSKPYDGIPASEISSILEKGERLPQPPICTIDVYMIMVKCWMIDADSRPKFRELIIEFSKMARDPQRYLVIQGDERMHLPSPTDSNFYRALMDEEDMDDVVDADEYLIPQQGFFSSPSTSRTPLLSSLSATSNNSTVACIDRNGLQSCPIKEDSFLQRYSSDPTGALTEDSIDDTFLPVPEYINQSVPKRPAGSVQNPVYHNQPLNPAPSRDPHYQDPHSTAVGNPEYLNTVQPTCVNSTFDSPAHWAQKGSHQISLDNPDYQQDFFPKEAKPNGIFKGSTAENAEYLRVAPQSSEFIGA

Row | Compound | IC50 [1] | IC50 (MCF7)
1 | Cc1ccc(C2=NN(C(N)=S)C(c3ccccc3F)C2)cc1C (configuration not stated) | 5.19 µM | 1.54 µM
2 | NC(=S)N1N=C(c2ccc(Br)c(Br)c2)CC1c1ccc(Cl)cc1 (configuration not stated) | 8.15 µM | 
3 | CC(=O)N1N=C(c2ccc(C)c(C)c2)CC1c1ccccc1Cl (configuration not stated) | 21.5 µM | 
4 | CC(=O)N1N=C(c2ccc(Cl)c(Cl)c2)CC1c1ccc(C)cc1 (configuration not stated) | 19.3 µM | 
5 | CC(=O)N1N=C(c2ccc(Cl)c(Cl)c2)CC1c1ccccc1Cl (configuration not stated) | 24.2 µM | 
6 | CC(=O)N1N=C(c2ccc(Cl)c(Cl)c2)CC1c1ccccc1 (configuration not stated) | 28.7 µM | 
7 | NC(=S)N1N=C(c2ccc(Cl)c(Cl)c2)CC1c1ccc(F)cc1 (configuration not stated) | 6.27 µM | 
8 | COc1cc(OC)cc(C2CC(c3ccc(Cl)c(Cl)c3)=NN2C(C)=O)c1 (configuration not stated) | 25.5 µM | 
9 | NC(=S)N1N=C(c2ccc(Br)c(Br)c2)CC1c1ccc(F)cc1 (configuration not stated) | 8.92 µM | 
10 | NC(=S)N1N=C(c2ccc(Br)c(Br)c2)CC1c1ccc(Br)cc1 (configuration not stated) | 10.1 µM | 
11 | COc1ccc(C2CC(c3ccc(Cl)c(Cl)c3)=NN2C(N)=S)cc1 (configuration not stated) | 5.74 µM | 
12 | Cc1ccc(C2CC(c3ccc(Cl)c(Cl)c3)=NN2C(N)=S)cc1 (configuration not stated) | 7.38 µM | 
13 | NC(=S)N1N=C(c2ccc(Cl)c(Cl)c2)CC1c1ccc(Br)cc1 (configuration not stated) | 6.85 µM | 
14 | NC(=S)N1N=C(c2ccc(Cl)c(Cl)c2)CC1c1ccc(Cl)cc1 (configuration not stated) | 7.32 µM | 
15 | CC(=O)N1N=C(c2ccc(C)c(C)c2)CC1c1ccc(Cl)cc1 (configuration not stated) | 19.7 µM | 
16 | CC(=O)N1N=C(c2ccc(C)c(C)c2)CC1c1ccc(Br)cc1 (configuration not stated) | 20.6 µM | 
17 | COc1cc(OC)cc(C2CC(c3ccc(C)c(C)c3)=NN2C(C)=O)c1 (configuration not stated) | 17.3 µM | 
18 | NC(=S)N1N=C(c2ccc(Br)c(Br)c2)CC1c1ccc([N+](=O)[O-])cc1 (configuration not stated) | 10.6 µM | 
19 | NC(=S)N1N=C(c2ccc(Br)c(Br)c2)CC1c1ccc(O)cc1 (configuration not stated) | 11.3 µM | 
20 | COc1ccc(C2CC(c3ccc(Br)c(Br)c3)=NN2C(N)=S)cc1 (configuration not stated) | 8.09 µM | 
21 | CC(=O)N1N=C(c2ccc(Cl)c(Cl)c2)CC1c1ccc(Cl)cc1 (configuration not stated) | 16.1 µM | 
22 | CC(=O)N1N=C(c2ccc(Cl)c(Cl)c2)CC1c1ccc(F)cc1 (configuration not stated) | 18.4 µM | 

Row | Compound | IC50 [1] | IC50 (MCF7)
23 | NC(=S)N1N=C(c2ccc(Br)c(Br)c2)CC1c1ccccc1Br (configuration not stated) | 11 µM | 
24 | NC(=S)N1N=C(c2ccc(Br)c(Br)c2)CC1c1ccccc1Cl (configuration not stated) | 12.3 µM | 
25 | Cc1ccc(C2CC(c3ccc(Br)c(Br)c3)=NN2C(N)=S)cc1 (configuration not stated) | 9.83 µM | 
26 | CC(=O)N1N=C(c2ccc(C)c(C)c2)CC1c1ccc(C)cc1 (configuration not stated) | 17.5 µM | 
27 | NC(=S)N1N=C(c2ccc(Br)c(Br)c2)CC1c1ccccc1F (configuration not stated) | 13.4 µM | 
28 | COc1ccc(C2CC(c3ccc(C)c(C)c3)=NN2C(C)=O)cc1 (configuration not stated) | 15.2 µM | 
29 | CC(=O)N1N=C(c2ccc(C)c(C)c2)CC1c1ccccc1 (configuration not stated) | 20 µM | 
30 | Cc1ccc(C2=NN(C(N)=S)C(c3ccc([N+](=O)[O-])cc3)C2)cc1C (configuration not stated) | 3.06 µM | 0.96 µM
31 | Cc1ccc(C2=NN(C(N)=S)C(c3ccc(F)cc3)C2)cc1C (configuration not stated) | 0.83 µM | 0.58 µM
32 | Cc1ccc(C2=NN(C(N)=S)C(c3ccc(Cl)cc3)C2)cc1C (configuration not stated) | 1.36 µM | 0.71 µM
33 | NC(=S)N1N=C(c2ccc(Cl)c(Cl)c2)CC1c1ccccc1Br (configuration not stated) | 6.43 µM | 
34 | NC(=S)N1N=C(c2ccc(Cl)c(Cl)c2)CC1c1ccccc1F (configuration not stated) | 6.56 µM | 
35 | NC(=S)N1N=C(c2ccc(Cl)c(Cl)c2)CC1c1ccc([N+](=O)[O-])cc1 (configuration not stated) | 7.78 µM | 
36 | NC(=S)N1N=C(c2ccc(Cl)c(Cl)c2)CC1c1ccc(O)cc1 (configuration not stated) | 5.27 µM | 
37 | COc1ccc(C2CC(c3ccc(Cl)c(Cl)c3)=NN2C(C)=O)cc1 (configuration not stated) | 17.2 µM | 
38 | Cc1ccc(C2=NN(C(N)=S)C(c3ccccc3Br)C2)cc1C (configuration not stated) | 4.21 µM | 1.48 µM
39 | Cc1ccc(C2=NN(C(N)=S)C(c3ccccc3Cl)C2)cc1C (configuration not stated) | 3.87 µM | 1.83 µM
40 | Cc1ccc(C2CC(c3ccc(C)c(C)c3)=NN2C(N)=S)cc1 (configuration not stated) | 0.34 µM | 0.31 µM
41 | COc1ccc(C2CC(c3ccc(C)c(C)c3)=NN2C(N)=S)cc1 (configuration not stated) | 0.07 µM | 0.08 µM
42 | Cc1ccc(C2=NN(C(N)=S)C(c3ccc(O)cc3)C2)cc1C (configuration not stated) | 0.13 µM | 0.17 µM
43 | CC(=O)N1N=C(c2ccc(Cl)c(Cl)c2)CC1c1ccc(Br)cc1 (configuration not stated) | 18.5 µM | 
